Data set [1] relates to Fibroblast. Briefly: Antiaging activity in fibroblasts isolated from human assessed as reduction in UVB-induced phospho-H2AX protein level after 6 days by Western blotting method. The format is functional, cell-based.
For data set [2], the system named is Fibroblast. Kind of data set: Antiaging activity in human fibroblasts assessed as reduction in UVB-induced phospho-H2AX protein level after 6 days by Western blotting method. In kind it is functional, cell-based.
Data set [3] is described as follows: Cytotoxicity against human UVB-induced fibroblasts assessed as cell viability. In kind it is cell-based. The settings on record: fibroblast.
The test system of data set [4] is Fibroblast. Briefly: Antiaging activity in human fibroblasts assessed as reduction in UVB-induced lamin A protein level after 6 days by Western blot method. In kind it is functional, cell-based.
For data set [5], the system named is Fibroblast. Kind of data set: Antiaging activity in human fibroblasts assessed as reduction of UVB-induced nucleus deformation after 6 days by confocal microscopy analysis. The format is functional, cell-based.
Data set [6] concerns Fibroblast. Kind of data set: Antiaging activity in human fibroblasts assessed as reduction in UVB-induced phospho-H2AX protein level after 6 days by confocal microscopy analysis. In kind it is functional, cell-based.

Molecules are shown by their SMILES. Activity calls are given as the source filed them. The rule behind the calls is not given here.

On to `O=c1cc(-c2ccc(O)c(-c3c(O)cc(O)c4c(=O)cc(-c5ccc(O)cc5)oc34)c2)oc2cc(O)cc(O)c12` [AMENTOFLAVONE], for which the Activity result is “Dose-dependent effect” with Fibroblast [1], “Dose-dependent effect” in the data set on Fibroblast [2], “Non-toxic” in data set [3] and “Dose-dependent effect” in the data set with Fibroblast [4]. For the same molecule, the result in the data set with Fibroblast [5] and with Fibroblast [6] was Active.
